Counter-ions that a name gives are not always drawn.
Columns and labels:
[1] = Effect of buffer concentration on stability at 60° C. (HPLC, pH); format: physicochemical; settings: for pH: 60° C.
Protocol: (§1) The drug is monitored at a detection wavelength of 232 nm.
Tightly sealed glass vials containing the test solutions were placed in an oven at 40° C. or 60° C. All samples were stored in the dark. Aliquots were removed at designated time points for HPLC analysis and pH measurement. All samples were analyzed without dilution.
In conjunction with HPLC analysis, pH was measured. The measurement was performed using the same samples as used for the HPLC analysis. The pH meter was calibrated using pH 4.00 and 7.00 buffer standards prior to each measurement.
Samples were incubated at 60° C. with scheduled testing performed at day 0, 2, 7, and 14. The various buffer concentrations were prepared by diluting the 50 mM buffer with water and re-examining the pH value to determine if the pH 3.5 was constant. Measurements of pH were performed after HPLC analysis of the samples.

[2] = Effect of additives on stability at 60° C. (HPLC); format: physicochemical; settings: sodium acetate pH 3.5, 60° C.
Text: as §1
The additives in this study are selected from five groups of injectable excipients namely, tonicity modifiers (NaCl and d-mannitol), metal chelators (EDTA), antioxidants (sodium metabisulfite), complexing agents (α-cyclodextrin and niacinamide) and solvents (glycerol and polypropylene glycol). A tonicity modifier is required for adjusting the phentolamine mesylate solution to isotonic. […] Complexing agents were applied in the hope that a possible formation of an inclusion complex (by α-cyclodextrin) or stacking complex (by niacinamide) with phentolamine would modify the rate of hydrolytic degradation of the drug substance. Solvents were added to reduce the dielectric constant of the vehicle and were intended to slow the rate of degradation due to solvent polarity.
The pH value of the solutions was readjusted to pH 3.5, as required.
The 25% glycerol (25 g in 100 ml total volume with water) and 25% polypropylene glycol (25 g in 100 ml total volume with water) solutions had their buffer strength adjusted by addition of acetic acid followed by addition of 2 N NaOH for pH adjustment to pH 3.5 followed by addition of the drug to 0.1 mg/ml.
All samples were placed in 10 ml glass serum vials, stoppered with rubber closures with an inert coating (Daikyo Flurotec by WEST Pharmaceutical), and sealed with flip-top caps after sampling. Vials were placed at 60° C. after the weights were recorded.
Sampling occurred at the initial time point and on days 2, 7, and 14. Vials were weighed, sampled, sealed, re-weighed, and replaced under the selected storage condition until testing at the subsequent time point. Records indicate no significant weight loss during storage.

[3] = 0 mM sodium acetate (un-buffered) pH 3.5, 60° C., Day 0
[4] = 0 mM sodium acetate (un-buffered) pH 3.5, 60° C., Day 2
[5] = 0 mM sodium acetate (un-buffered) pH 3.5, 60° C., Day 7
[6] = 0 mM sodium acetate (un-buffered) pH 3.5, 60° C., Day 14
[7] = 5 mM sodium acetate pH 3.5, 60° C., Day 0
[8] = 5 mM sodium acetate pH 3.5, 60° C., Day 2
[9] = 5 mM sodium acetate pH 3.5, 60° C., Day 7
[10] = 5 mM sodium acetate pH 3.5, 60° C., Day 14
[11] = 10 mM sodium acetate pH 3.5, 60° C., Day 0
[12] = 10 mM sodium acetate pH 3.5, 60° C., Day 2
[13] = 10 mM sodium acetate pH 3.5, 60° C., Day 7
[14] = 10 mM sodium acetate pH 3.5, 60° C., Day 14
[15] = 50 mM sodium acetate pH 3.5, 60° C., Day 7
[16] = 50 mM sodium acetate pH 3.5, 60° C., Day 14

Phentolamine Concentration [1, 3]: 90 µg/mL
Phentolamine Purity [1, 3]: 99 % peak area
Phentolamine Concentration [1, 4]: 92 µg/mL
Phentolamine Purity [1, 4]: 99 % peak area
Phentolamine Concentration [1, 5]: 82 µg/mL
Phentolamine Purity [1, 5]: 98 % peak area
Phentolamine Concentration [1, 6]: 77 µg/mL
Phentolamine Purity [1, 6]: 97 % peak area
pH ([1]; 0 mM sodium acetate (un-buffered), Day 0): 3.6
pH ([1]; 0 mM sodium acetate (un-buffered), Day 2): 4.4
pH ([1]; 0 mM sodium acetate (un-buffered), Day 7): 5.1
pH ([1]; 0 mM sodium acetate (un-buffered), Day 14): 5.3
Phentolamine Concentration [1, 7]: 99 µg/mL
Phentolamine Purity [1, 7]: 99 % peak area
Phentolamine Concentration [1, 8]: 97 µg/mL
Phentolamine Purity [1, 8]: 99 % peak area
Phentolamine Concentration [1, 9]: 94 µg/mL
Phentolamine Purity [1, 9]: 98 % peak area
Phentolamine Concentration [1, 10]: 92 µg/mL
Phentolamine Purity [1, 10]: 98 % peak area
pH ([1]; 5 mM sodium acetate, Day 0): 3.5
pH ([1]; 5 mM sodium acetate, Day 2): 3.8
pH ([1]; 5 mM sodium acetate, Day 7): 3.8
pH ([1]; 5 mM sodium acetate, Day 14): 3.8
Phentolamine Concentration [1, 11]: 100 µg/mL
Phentolamine Purity [1, 11]: 99 % peak area
Phentolamine Concentration [1, 12]: 97 µg/mL
Phentolamine Purity [1, 12]: 99 % peak area
Phentolamine Concentration [1, 13]: 96 µg/mL
Phentolamine Purity [1, 13]: 98 % peak area
Phentolamine Concentration [1, 14]: 92 µg/mL
Phentolamine Purity [1, 14]: 98 % peak area
pH ([1]; 10 mM sodium acetate, Day 0): 3.5
pH ([1]; 10 mM sodium acetate, Day 2): 3.7
pH ([1]; 10 mM sodium acetate, Day 7): 3.8
pH ([1]; 10 mM sodium acetate, Day 14): 3.7
Phentolamine Purity ([1]; 50 mM sodium acetate pH 3.5, 60° C., Day 0): 98 % peak area
Phentolamine Purity ([1]; 50 mM sodium acetate pH 3.5, 60° C., Day 2): 98 % peak area
Phentolamine Concentration [1, 15]: 99 µg/mL
Phentolamine Purity [1, 15]: 98 % peak area
Phentolamine Concentration [1, 16]: 96 µg/mL
Phentolamine Purity [1, 16]: 96 % peak area
pH ([1]; 50 mM sodium acetate, Day 0): 3.5
pH ([1]; 50 mM sodium acetate, Day 2): 3.6
pH ([1]; 50 mM sodium acetate, Day 7): 3.6
pH ([1]; 50 mM sodium acetate, Day 14): 3.6
Phentolamine Purity ([2]; EDTA 0.7 mg/ml, Day 0): 99 % Peak Area
Phentolamine Purity ([2]; EDTA 0.7 mg/ml, Day 2): 99 % Peak Area
Phentolamine Purity ([2]; EDTA 0.7 mg/ml, Day 7): 99 % Peak Area
Phentolamine Concentration ([2]; EDTA 0.7 mg/ml, Day 14): 99 µg/mL
Phentolamine Purity ([2]; EDTA 0.7 mg/ml, Day 14): 98 % Peak Area
Phentolamine Purity ([2]; Glycerol 25% w/v, Day 0): 98 % Peak Area
Phentolamine Purity ([2]; Glycerol 25% w/v, Day 2): 98 % Peak Area
Phentolamine Concentration ([2]; Glycerol 25% w/v, Day 7): 120 µg/mL
Phentolamine Purity ([2]; Glycerol 25% w/v, Day 7): 93 % Peak Area
Phentolamine Purity ([2]; Glycerol 25% w/v, Day 14): 94 % Peak Area
Phentolamine Concentration ([2]; NaCl 50 mg/ml, Day 0): 94 µg/mL
Phentolamine Purity ([2]; NaCl 50 mg/ml, Day 0): 94 % Peak Area
SMILES: Cc1ccc(N(CC2=NCCN2)c2cccc(O)c2)cc1 [Phentolamine Mesylate, phentolamine mesylate]
rate of degradation vs un-buffered control (0 mM) ([1]; 5, 10 and 50 mM sodium acetate, pH 3.5, 60° C.): comparable and was an improvement over the un-buffered control

— patent US7229630B2, “Stabilized formulations of alpha adrenergic receptor antagonists and the uses thereof” (Novalar Pharmaceuticals, Inc., priority 2002, dated 2007)
